We go through 1 substance from patent publication US6497872B1, “Neural transplantation using proliferated multipotent neural stem cells and their progeny” (NeuroSpheres Holdings Ltd., priority 1991, dated 2002).

Assay [1] has as its system constitutively proliferating subependymal cells of the lateral ventricles. The assay is described as follows: In vivo proliferation of retrovirus β-gal labelled cells of the lateral ventricle (Example 27). Details: species or system mouse. The procedure: A replication incompetent retrovirus containing the β-galactosidase gene [as described in Walsh and Cepko, Science 241:1342, (1988)] was injected into the forebrain lateral ventricles of CD1 adult male mice (25-30 g from Charles River). The injected retrovirus was harvested from the BAG cell line (ATCC CRL-9560) according to the method of Walsh and Cepko (supra). Mice were anesthetized using 65 mg/kg, i.p. sodium pentobarbital. Unilateral stereotactic injections of 0.2-1.0 μl of retrovirus were injected into the lateral ventricle using a 1 μl Hamilton syringe. The coordinates for injection were AP +4.2 mm anterior to lambda, L ±0.7 mm, and DV −2.3 mm below dura, with the mouth bar at −2 mm below the interaural line.
On the same day as, one day, or six days following the retrovirus injection, an infusion cannulae attached to a 0.5 μl/hour ALZET osmotic mini-pumps filled with 3.3-330 μg/ml of EGF were surgically implanted into the lateral ventricles at the identical stereotactic coordinates as stated above. The infusion cannula kits were obtained from ALZA. The infusion cannulae were cut to 2.7 mm below the pedestal. The pumps were secured to the mouse skull by use of acrylic cement and a skull screw contralateral and caudal to the injection site. […]

The subject of a further assay is Primary striatal cells. The assay is described as follows: Striatum-derived neurosphere proliferation in response to proliferative and regulatory factors (Example 43, Paradigm 1). It is filed as cell-based, mouse. The procedure: Paradigm 1: Primary striatal cells prepared as outlined in Example 1 were suspended in Complete Medium, without growth factors, plated in 96 well plates (Nunclon) and incubated as described in Example 4. Following a one hour incubation period, a specific proliferative factor, or a combination of proliferative factors including EGF, or bFGF (recombinant human bFGF: R & D Systems), or a combination of EGF and bFGF, or EGF plus FGF plus heparan sulfate (Sigma), or bFGF plus heparan sulfate made up in Complete Medium at a concentration of 20 ng/ml for each of the growth factors and 2 μg/ml for heparan sulfate), was added to each well of the plate.
Retinoic acid (Sigma) was added at a concentration of 10^−6 M. 10 μl of one of these regulatory factor-containing solutions was added to each proliferative factor-containing well of the 96 well plates. Control wells, containing only proliferative factors, were also prepared. […]
IL-2, IL-6, IL-8, MIP-1∂, MIP-1β, MIP-2, TNFα and EGF additions were repeated every second day, CNTF which was added each day and retinoic acid, NGF and PDGF were added only once, at the beginning of the experiment. The cells were incubated for a period of 10-12 days. The number of neurospheres in each well was counted and the resulting counts tabulated using Cricket Graph III. Other relevant information regarding sphere size and shape were also noted.

In assay [2] the test system is BrdU positive cells in cervical spinal cord. In words: In vivo infusion of growth factors into ventricles, BrdU labelling of cervical spinal cord (Example 30). Details: species or system mouse. The following applies: 25 μg/mL, osmotic mini-pump, six days. The procedure: Adult male CD1 albino mice (30-35 g) from Charles River were anaesthetized with sodium pentobarbital ([…]) and placed in a stereotaxic apparatus. The dorsal aspect of the skull was exposed with a longitudinal incision. Cannulas were inserted into the fourth ventricle (stereotaxic coordinates A/P −7.0, L ±0.3 D/V −5.8), cerebral aqueduct (A/P −4.8 L ±D/V −2.6), or central canal (DIV −1.5). The cannulae were attached with sterile tubing to subcutaneous positioned ALZET osmotic mini-pumps containing 25 μg/mL EGF (Becton 40001) and/or 25 μg/mL FGF-2 (R&D Systems 233-FB). Pumps containing sterile saline plus 0.1% mouse albumin (Sigma A3134) were used as controls. The incisions were closed with dental cement.
Six days following surgery mice were injected with 0.15 mL BrdU (Sigma B5002); 18 mg/mL in 0.007% NaOH/0.1M PBS) every 2 hours for 8 hours. They were killed 0.5 hours after the last injection with an anaesthetic overdose, and transcardially perfused with 10 mL of ice-cold sterile saline followed by 10 mL of ice-cold Bouin's fixative (5% glacial acetic acid, 9% formaldehyde, 70% picric acid). The cervical spinal cord region was dissected out and post-fixed overnight at 4° C. in Bouin's post-fixative solution (9% formaldehyde, 70% picric acid). […] The number of BrdU positive cells was counted per cervical spinal cord section. […]
A general note: Incorporation of labelled thymidine or its analogues reports DNA synthesis.

On to “bFGF: basic fibroblast growth factor, recombinant human (R & D Systems)”, for which the “number of β-gal labelled cells” value in assay [1] (33 μg/ml infusion) was “increase”. Besides, the “migration of β-gal labelled cells” value in assay [1] (6 days infusion) was “not accompanied by any additional migration”. For the same substance, the “size of neurospheres relative to those generated in the presence of EGF” value in the assay with Primary striatal cells (bFGF alone) is on record as “about 20%”. The “neurospheres generated per well” value with Primary striatal cells (proliferative factor alone, 20 ng/ml) was “approximately 70 neurospheres per well”. The “number of BrdU labelled cells per cervical spinal cord section compared to control” value in assay [2] is “significant increase”.
